Measured values: PMC8972196, “A Set of Experimentally Validated Decoys for the Human CC Chemokine Receptor 7 (CCR7) Obtained by Virtual Screening” (Frontiers in Pharmacology, 2022)
Like-named read-outs stand apart in the source and are kept apart here.

Target: T1, human CCR7 (Homo sapiens, UniProt P32248)
T1 construct: expressed in transfected cells
T1 sequence (P32248 25-378): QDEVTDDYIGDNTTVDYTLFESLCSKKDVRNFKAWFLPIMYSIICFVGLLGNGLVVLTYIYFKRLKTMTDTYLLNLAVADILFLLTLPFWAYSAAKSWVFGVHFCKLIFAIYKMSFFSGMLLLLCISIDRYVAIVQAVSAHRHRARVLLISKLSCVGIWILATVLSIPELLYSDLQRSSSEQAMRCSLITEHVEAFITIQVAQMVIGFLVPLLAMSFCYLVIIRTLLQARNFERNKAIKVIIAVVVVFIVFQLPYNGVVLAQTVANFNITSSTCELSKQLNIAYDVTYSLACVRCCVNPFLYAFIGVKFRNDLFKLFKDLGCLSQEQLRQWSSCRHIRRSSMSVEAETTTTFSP
Test: CCL19-induced calcium mobilization assay, U87.CD4 cells expressing CCR7
Format: cell-based
Details: for IC50: read-out: IC50 [μM] block CCL19 induced calcium signaling
Procedure, shortened: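 U87.CD4 cells stably expressing human CCR7, CXCR2 or CCR5 were seeded at 20,000 cells/well and incubated overnight at 37°C and 5% CO2. Cells were then incubated for 45 min at room temperature in the dark before calcium responses were recorded. CCR7 responses were induced with CCL19 and CXCR2 responses with CXCL8.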

[1] = CCL19 induced calcium signaling
[2] = classification as decoy or active on CCR7
[3] = CCL19-induced calcium signaling
[4] = classification of tested compounds as decoy or active

Row | IC50 [1] | Decoy – 0 Active – 1 [2] | IC50 [3] | Decoy – 0 Active – 1 [4] | SMILES
1 | – | – | > 50 µM | 0 | C[C@@H]1CCN(Cc2ccccc2)C[C@H]1Nc1nccc(C(N)=O)c1[N+](=O)[O-] [C116, C[C@@H]1CC[N@H+](Cc2ccccc2)C[C@H]1Nc1nccc(C(N)=O)c1[N+](=O)[O-]]
2 | – | – | > 50 µM | 0 | Cc1c(C(=O)NCC2CC2)sc2ncnc(NCCc3ccccn3)c12 [C093, Cc1c(C(=O)NCC2CC2)sc2ncnc(NCCc3ccccn3)c12]
3 | – | – | > 50 µM | 0 | CN(Cc1ccccc1N[C@H]1CCN(C)C1=O)C(=O)c1cccs1 [C124, CN(Cc1ccccc1N[C@H]1CCN(C)C1=O)C(=O)c1cccs1]
4 | – | – | > 50 µM | 0 | CC(Nc1c(NCc2ccc3c(c2)OCO3)c(=O)c1=O)c1ccccc1 (stereo not shown) [C013, CC(Nc1c(NCc2ccc3c(c2)OCO3)c(=O)c1=O)c1ccccc1]
5 | > 50 µM | 0 | – | – | COc1ccc2c(c1)CCCN2C(=O)C1CC(=O)N(c2ccc3c(c2)OCCO3)C1 (stereo not shown) [C218, COc1ccc2c(c1)CCCN2C(=O)C1CC(=O)N(c2ccc3c(c2)OCCO3)C1]
6 | – | – | > 50 µM | 0 | CN(C)C(=O)Cn1cccc(NC(=O)CCC(C)(C)c2ccccc2)c1=O [C128, CN(C)C(=O)Cn1cccc(NC(=O)CCC(C)(C)c2ccccc2)c1=O]
7 | > 50 µM | 0 | – | – | Cc1nc[nH]c1C(=O)NC1CC(=O)N(Cc2ccccc2Cl)C1 (stereo not shown) [C274, Cc1nc[nH]c1C(=O)NC1CC(=O)N(Cc2ccccc2Cl)C1]
8 | > 50 µM | 0 | – | – | Cc1noc(C)c1CNC(=O)COc1ccccc1CO [C172, Cc1noc(C)c1CNC(=O)COc1ccccc1CO]
9 | – | – | > 50 µM | 0 | O=c1c(Nc2cc(C(F)(F)F)cc(C(F)(F)F)c2)c(N[C@H]2CCCC[C@@H]2N2CCCCC2)c1=O [C023, O=C1C(N[C@H]2CCCC[C@@H]2N3CCCCC3)=C(NC4=CC(C(F)(F)F)=CC(C(F)(F)F)=C4)C1=O]
10 | > 50 µM | 0 | – | – | O=C(CN1CCCC1Cc1ccccc1Cl)NC1CCCCNC1=O (stereo not shown) [C284, O=C(CN1CCCC1Cc1ccccc1Cl)NC1CCCCNC1=O]
11 | – | – | > 50 µM | 0 | C[S@+]([O-])c1cccc(NC(=O)NCC2(c3cccc(F)c3)CC2)c1 [C130, C[S@](=O)c1cccc(NC(=O)NCC2(c3cccc(F)c3)CC2)c1]
12 | > 50 µM | 0 | – | – | COc1cccc(C2CC(O)CN2Cc2nc3ccccc3[nH]2)c1 (stereo not shown) [C279, COc1cccc(C2CC(O)CN2Cc2nc3ccccc3[nH]2)c1]
13 | > 50 µM | 0 | – | – | CN(Cc1csc(-c2ccccc2)n1)C(=O)c1c[nH]c(=O)c(Cl)c1 [C232, CN(Cc1csc(-c2ccccc2)n1)C(=O)c1c[nH]c(=O)c(Cl)c1]
14 | – | – | > 50 µM | 0 | COc1cccc(-c2cc(C(=O)NCc3ccco3)no2)c1 [C094, COc1cccc(-c2cc(C(=O)NCc3ccco3)no2)c1]
15 | > 50 µM | 0 | – | – | O=C(NCC(=O)N1CCCC1c1ccc2c(c1)OCO2)c1cc2ccccc2[nH]1 (stereo not shown) [C285, O=C(NCC(=O)N1CCCC1c1ccc2c(c1)OCO2)c1cc2ccccc2[nH]1]
16 | > 50 µM | 0 | – | – | NC(=O)Nc1cccc(C(=O)NCc2ccccc2Cl)c1 [C173, NC(=O)Nc1cccc(C(=O)NCc2ccccc2Cl)c1]

Further lines, the compound ahead of its results:

Row | SMILES | IC50 [1] | Decoy – 0 Active – 1 [2] | IC50 [3] | Decoy – 0 Active – 1 [4]
17 | CN1CCN(CCC2CCCCN2Cc2nc3ccccc3[nH]2)CC1 (stereo not shown) [C275, CN1CCN(CCC2CCCCN2Cc2nc3ccccc3[nH]2)CC1] | > 50 µM | 0 | – | –
18 | C[C@H](Nc1c(N[C@H]2C[C@H]3CC[C@@]2(CN2CCCC2)C3(C)C)c(=O)c1=O)c1cccc2ccccc12 [C022, CC1(C)[C@@H]2CC[C@]1(CN3CCCC3)[C@@H](NC(C4=O)=C(N[C@H](C5=CC=CC6=C5C=CC=C6)C)C4=O)C2] | – | – | > 50 µM | 0
19 | Cc1cc(NCC(=O)N(C)Cc2ccco2)ccc1C(=O)N(C)C [C060, Cc1cc(NCC(=O)N(C)Cc2ccco2)ccc1C(=O)N(C)C] | – | – | > 10 µM | 0
20 | COc1c[nH]c(C(=O)NC(c2cccnc2)C(F)(F)F)cc1=O (stereo not shown) [C213, COc1c[nH]c(C(=O)NC(c2cccnc2)C(F)(F)F)cc1=O] | > 50 µM | 0 | – | –
21 | CCOC(=O)CNC(=S)Nc1ncccc1C [C043, CC1=CC=CN=C1NC(NCC(OCC)=O)=S] | – | – | > 30 µM | 0
22 | CC[C@H](NC(=O)N(CCO)Cc1ccc(F)cc1)c1nc(C)no1 [C163, CC[C@H](NC(=O)N(CCO)Cc1ccc(F)cc1)c1nc(C)no1] | > 50 µM | 0 | – | –
23 | CC(=O)c1cccc(NC(=O)NC(c2ccc(C)o2)C(C)(C)C)c1 (stereo not shown) [C062, CC(=O)c1cccc(NC(=O)NC(c2ccc(C)o2)C(C)(C)C)c1] | – | – | > 10 µM | 0
24 | C[C@@H](CNC(=O)N[C@H]1CCO[C@@H](c2ccccc2)C1)c1ccsc1 [C108, C[C@@H](CNC(=O)N[C@H]1CCO[C@@H](c2ccccc2)C1)c1ccsc1] | – | – | > 50 µM | 0
25 | CC(C)[C@@H](Nc1nccc(CCC(F)(F)F)n1)c1nccn1C [C146, CC(C)[C@@H](Nc1nccc(CCC(F)(F)F)n1)c1nccn1C] | – | – | > 50 µM | 0
26 | COc1ccc([N+](=O)[O-])c(C(=O)N[C@@H](c2ncccc2C)C(C)C)c1 [C135, COc1ccc([N+](=O)[O-])c(C(=O)N[C@@H](c2ncccc2C)C(C)C)c1] | – | – | > 50 µM | 0
27 | COC(=O)c1ccc([C@H]2CC(=O)Nc3c2cnn3Cc2ccco2)cc1 [C158, COC(=O)c1ccc([C@H]2CC(=O)Nc3c2cnn3Cc2ccco2)cc1] | – | – | > 50 µM | 0
28 | NC(=O)C1CC(O)CN1C(=S)Nc1ccc(S(=O)(=O)N2CCOCC2)cc1 (stereo not shown) [C028, NC(=O)C1CC(O)CN1C(=S)Nc1ccc(cc1)S(=O)(=O)N1CCOCC1] | – | – | > 30 µM | 0
29 | COc1ccc(CNc2c(NCc3ccc4c(c3)OCO4)c(=O)c2=O)cc1 [C012, COc1ccc(CNc2c(NCc3ccc4c(c3)OCO4)c(=O)c2=O)cc1] | – | – | > 50 µM | 0
30 | Cc1cccc2c(=O)n(CCC(=O)N[C@@H](c3ccccc3)C(C)C)cnc12 [C131, Cc1cccc2c(=O)n(CCC(=O)N[C@@H](c3ccccc3)C(C)C)cnc12] | – | – | > 50 µM | 0
31 | Cc1ccc(NC(=O)CN(C)C[C@@H]2CCCO2)cc1[N+](=O)[O-] [C106, Cc1ccc(NC(=O)C[N@@H+](C)C[C@@H]2CCCO2)cc1[N+](=O)[O-]] | – | – | > 50 µM | 0
32 | Cc1ccc(S(=O)(=O)N(C)c2ccccc2C(=O)NCc2ccco2)cc1 [C240, Cc1ccc(cc1)S(=O)(=O)N(C)c2ccccc2C(=O)NCc3ccco3] | > 50 µM | 0 | – | –
33 | O=c1oc2ccccc2n1CCCN1CCCC1c1ccc(O)cc1 (stereo not shown) [C189, O=c1oc2ccccc2n1CCC[NH+]1CCCC1c1ccc(O)cc1] | > 50 µM | 0 | – | –
34 | FC(F)(F)c1cc(CNC(=S)NCc2ccccc2)cc(C(F)(F)F)c1 [C050, S=C(NCC1=CC=CC=C1)NCC2=CC(C(F)(F)F)=CC(C(F)(F)F)=C2] | – | – | > 50 µM | 0
35 | COc1c(Nc2cc(C(F)(F)F)cc(C(F)(F)F)c2)c(=O)c1=O [C025, O=C1C(OC)=C(NC2=CC(C(F)(F)F)=CC(C(F)(F)F)=C2)C1=O] | – | – | > 30 µM | 0
